# Experiments:
# [1] = test system: CYP11B2 (aldosterone synthase) expression, H295R cells expressing KCNJ5^WT; assay: Real-time PCR of CYP11B2 in H295R cells transfected with KCNJ5^WT; type: cell-based, human; details: 5, 20 or 50 μM for 18 h
# Method: (§1) H295R cells were cultured in DMEM/F12, HEPES (Gibco) supplemented with 2.5% Ultroser G (Pall Biosepra), 1% ITS+ Premix (Corning) and 1% Penicillin/Streptomycin (Gibco). Plasmids were purified using the Endofree Maxi Kit (Qiagen). […] 3×10^6 cells were transfected with 3 μg pIRES eGFP containing no insert, WT or mutant KCNJ5 using an Amaxa Nucleofector I (program P-20) and the Nucleofector Kit R (Lonza). Cells were allowed to recover briefly in RPMI 1640 medium (Gibco). […] After an additional 18 h, RNA was harvested using the RNeasy Mini Kit (Qiagen) following the manufacturer's instructions. 300 ng RNA were transcribed using the Quantitect Reverse Transcription Kit (Qiagen). Expression levels of CYP11B2 and GAPDH were quantified in triplicates in a 7300 Real-Time PCR System (Applied Biosystems) using the Taqman Gene Expression Master Mix and assays Hs01597732_m1 (CYP11B2) or HS02758991_g1 (GAPDH) (all Applied Biosystems). DDCT values were calculated by normalization of DCT values, using the average DCT of vehicle treated empty vector-transfected cells as a reference.
# (§2) This cell line is derived from a human adrenocortical carcinoma and represents a commonly used in vitro model of zona glomerulosa aldosterone production (Wang et al. 2012, Horm. Metab. Res. 44:245-250). […]
# [2] = test system: CYP11B2 (aldosterone synthase) expression, H295R cells expressing KCNJ5^L168R; assay: Real-time PCR of CYP11B2 in H295R cells transfected with KCNJ5^L168R; type: cell-based, human; details: 5, 20 or 50 μM for 18 h; p=0.0034 at 20 μM
# Method: as §1, §2
# [3] = test system: CYP11B2 (aldosterone synthase) expression, H295R cells expressing KCNJ5^G151R; assay: Real-time PCR of CYP11B2 in H295R cells transfected with KCNJ5^G151R; type: cell-based, human; details: 5, 20 or 50 μM for 18 h; p=0.0006 at 20 μM
# Method: as §1, §2
# [4] = biological target: T1, KCNJ5^WT (Homo sapiens, UniProt P48544); assay: Perforated whole-cell patch clamp, KCNJ5^WT homotetramers in HEK293T cells; type: cell-based; details: increasing concentrations, −80 mV (FIG. 12D)
# T1 construct: expressed in transfected cells
# T1 sequence (P48544 1-419): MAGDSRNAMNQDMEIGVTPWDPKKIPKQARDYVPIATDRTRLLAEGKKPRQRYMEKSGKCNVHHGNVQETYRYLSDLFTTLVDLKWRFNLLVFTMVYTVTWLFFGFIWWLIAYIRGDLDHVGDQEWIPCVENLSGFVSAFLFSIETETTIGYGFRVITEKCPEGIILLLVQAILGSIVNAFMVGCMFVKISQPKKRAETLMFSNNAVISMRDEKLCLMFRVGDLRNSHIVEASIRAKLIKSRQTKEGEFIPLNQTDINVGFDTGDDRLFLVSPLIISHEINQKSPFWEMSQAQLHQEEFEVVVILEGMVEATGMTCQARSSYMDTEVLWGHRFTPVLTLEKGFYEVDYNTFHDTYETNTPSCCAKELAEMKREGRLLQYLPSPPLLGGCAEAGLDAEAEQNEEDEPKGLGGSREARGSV
# Method: Cation currents were measured with the perforated whole cell recording technique (140 mM NaCl/5 mM KCl bath solution, 140 mM KCl pipette solution for KCNJ5^G151R; 140 mM NaCl/5 mM KCl bath solution, 140 mM KCl, 1.8 mM MgCl2 pipette solution for KCNJ5^L168R; 140 mM KCl bath and pipette solution for KCNJ5^WT). […] Errors represent standard error of the mean, N=3 to 6. […] In contrast, WT currents are not inhibited.
# HEK293T cells (American Type Culture Collection) were used for transient expression of GFP-tagged KCNJ5 or KCNJ3. The cells were grown in Dulbecco's modified Eagle medium (DMEM; Invitrogen) supplemented with 10% FBS (Invitrogen) in 5% CO2 and 95% air at 37° C. […]
# Within 24 hr after transfection, the cells were treated with trypsin-containing medium (TrypLE Express) (Gibco) for 10 minutes to detach the cells. […] Fluorescence signal (an indication of positive transfection) was detected with an intensified video imaging system including a SIT 68 camera (Long Island Industries). […] After forming a high resistance seal (>2 GΩ), the membrane capacitance was monitored until the whole-cell patch configuration was formed. The cell membrane capacitance was measured and compensated. The K/cation currents were measured from −80 mV to 20 mV with 20 mV steps by an Axon 200A patch-clamp amplifier. […]
structure (smiles),measurement,setting,value
"CC[C@H]1OC(=O)[C@H](C)[C@@H](O[C@H]2C[C@@](C)(OC)[C@@H](O)[C@H](C)O2)[C@H](C)[C@@H](O[C@@H]2O[C@H](C)C[C@H](N(C)C)[C@H]2O)[C@](C)(O)C[C@@H](C)/C(=N\OCOCCOC)[C@H](C)[C@@H](O)[C@]1(C)O [Roxithromycin, roxithromycin]",expression of CYP11B2,[1],virtually no change
same,expression of CYP11B2,[2],inhibited expression of CYP11B2 in a dose-dependent fashion
same,expression of CYP11B2,[3],inhibited expression of CYP11B2 in a dose-dependent fashion
same,inhibition of WT currents,[4],not inhibited
